Assay results published in ChEMBL document CHEMBL5247647, “Phenothiazine-Based LSD1 Inhibitor Promotes T-Cell Killing Response of Gastric Cancer Cells” (J Med Chem, 2023).

Target: Lysine-specific histone demethylase 1A (Homo sapiens, UniProt O60341)
Test: Inhibition of recombinant LSD1 (unknown origin) expressed in Escherichia coli BL21 (DE3) using H3K4me2 peptide as substrate incubated for 30 mins by fluorescence based microplate reader assay

- IC50: > 10 µM
SMILES: CN(C)CCCN1c2ccccc2Sc2ccc(C(F)(F)F)cc21 [TRIFLUPROMAZINE]
